Measured values as given in patent US20130004481A1, “ANTICANCER THERAPY” (BOEHRINGER INGELHEIM INTERNATIONAL GMBH, priority 2011, published 2013).

Biological target: T1, wild type (wt)-Xenopus laevis Aurora B/INCENP complex (Xenopus laevis, UniProt Q6DE08)
T1 construct: Purified (wt)-Xenopus laevis Aurora B^60-361/INCENP^790-847 complex was stored at −80° C; GST (cleaved yes); made in house; host or cells: E. coli BL21(DE3) with pUBS520 helper plasmid
Experiment: Radioactive kinase assay using wt Xenopus laevis Aurora B/INCENP complex
Format: biochemical
Settings: 100 μM ATP
Protocol: Radioactive Kinase Assay Using a Wild Type (wt)-Xenopus laevis Aurora B/INCENP Complex:
The kinase assays are run in the presence of 100 μM ATP using 10 μM of a substrate peptide. pAUB-IN847 was used to transform the E. coli strain BL21(DE3) containing the pUBS520 helper plasmid. Both proteins and their mutants are expressed and purified under essentially identical conditions. Protein expression is induced with 0.3 mM IPTG at an OD600 of 0.45-0.7. Expression is then continued for about 12-16 hours at 23-25° C. with agitation. […] 20-30 ml lysis buffer are used per liter of E. coli culture. Cells are lysed by sonication, and the lysates cleared by centrifugation at 12000 rpm for 45-60 min on a JA20 rotor. The supernatants are incubated with 300 μl of GST Sepharose Fast Flow (Amersham Biosciences) per liter of bacterial culture. The resin is first washed with PBS buffer and finally equilibrated with lysis buffer. After a 4-5 hour agitation at 4° C., the beads are washed with 30 volumes of lysis buffer, and then equilibrated with 30 volumes of cleavage buffer (50 mM Tris pH 7.6, 150 mM NaCl, 1 mM DTT, 1 mM EDTA). To cleave the GST from Aurora B, 10 units of Prescission protease (Amersham Biosciences) per milligram of substrate are added and the incubation is protracted for 16 hours at 4° C. The supernatant, which contains the cleaved product, is collected and loaded onto a 6 ml Resource Q column (Amersham Biosciences) equilibrated with Ion Exchange buffer (50 mM Tris pH 7.6, 150 mM NaCl, 1 mM DTT, 1 mM EDTA). The Aurora B/INCENP complex is collected in the flow through of the column. The flow-through of the Resource Q column is concentrated and loaded onto a Superdex 200 size-exclusion chromatography (SEC) column equilibrated with SEC buffer (Tris HCl 10 mM pH 7.6, NaCl 150 mM, DTT 1 mM, EDTA 1 mM). […] The final yield is about 1-2 mg of pure complex per liter of bacteria.
Assay conditions: Enzyme activity was assayed in the presence or absence of serial inhibitor dilutions.
Data analysis: Inhibitor concentrations were transformed to logarithmic values and the raw data were normalized. These normalized values were used to calculate the IC50 values. […] Each microtiter plate contained internal controls, such as blank, maximum reaction and historical reference compound.

T1 sequence (Q6DE08 60-361): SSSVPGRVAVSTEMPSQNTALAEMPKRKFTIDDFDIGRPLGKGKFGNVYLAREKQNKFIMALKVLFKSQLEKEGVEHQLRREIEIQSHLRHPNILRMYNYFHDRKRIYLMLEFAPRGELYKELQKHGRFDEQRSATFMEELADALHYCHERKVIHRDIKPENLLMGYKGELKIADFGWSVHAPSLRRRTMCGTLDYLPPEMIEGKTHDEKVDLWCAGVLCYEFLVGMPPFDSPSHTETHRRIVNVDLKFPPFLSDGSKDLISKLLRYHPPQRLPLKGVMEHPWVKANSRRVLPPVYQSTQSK
T1 sequence (O13024 790-847 partner limits assumed): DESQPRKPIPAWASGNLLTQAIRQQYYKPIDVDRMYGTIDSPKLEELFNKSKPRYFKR

Structure (SMILES)	IC50 [nM]
O=C(C#Cc1ccc2c(c1)NC(=O)/C2=C(\Nc1ccc(CN2CCCC2)cc1)c1ccccc1)NCC(F)F [Compound 3, N-(2,2-difluoroethyl)-3-[2-oxo-3-[phenyl-[4-(pyrrolidin-1-ylmethyl)anilino]methylidene]-1H-indol-6-yl]prop-2-ynamide]	4
CN(C)Cc1ccc(N/C(=C2\C(=O)Nc3cc(C#CC(=O)NCC(F)F)ccc32)c2ccccc2)cc1 [Compound 2, N-(2,2-difluoroethyl)-3-[3-[[4-(dimethylaminomethyl)anilino]-phenylmethylidene]-2-oxo-1H-indol-6-yl]prop-2-ynamide]	7
O=C(C#Cc1ccc2c(c1)NC(=O)/C2=C(\Nc1ccc(CN2CCCC2)cc1)c1ccccc1)NCCF [Compound 4, N-(2-fluoroethyl)-3-[2-oxo-3-[phenyl-[4-(pyrrolidin-1-ylmethyl)anilino]methylidene]-1H-indol-6-yl]prop-2-ynamide]	5
CCNC(=O)C#Cc1ccc2c(c1)NC(=O)/C2=C(\Nc1ccc(N2CCN(C)CC2)cc1)c1ccccc1 [Compound 1, N-ethyl-3-[3-[[4-(4-methylpiperazin-1-yl)anilino]-phenylmethylidene]-2-oxo-1H-indol-6-yl]prop-2-ynamide]	2
CCNC(=O)C#Cc1ccc2c(c1)NC(=O)/C2=C(\Nc1ccc(CN(C)C)cc1)c1ccccc1 [Compound 6, 3-[3-[[4-(dimethylaminomethyl)anilino]-phenylmethylidene]-2-oxo-1H-indol-6-yl]-N-ethylprop-2-ynamide]	3
